# According to US5861403A, “Purinylalkyl benzamide derivatives” (G. D. Searle & Co., priority 1996, dated 1999):
# Biological target: T1, Human Platelet Receptor (Homo sapiens, UniProt P25105)
# T1 construct: tissue Lifesource, Inc. (Glenview, Ill.); host or cells: human packed platelets, washed, broken by freeze-thaw; membrane pellet
# Test: Human Platelet Receptor Binding (inhibition of specific binding of [^3 H]PAF to human platelet membrane preparation)
# Conditions: 0.5 h, 0.75 nM [^3 H]PAF, human platelet membranes, read-out: Human Platelet Receptor, % @ 10 μM (percent displacement)
# Method: Assay B: Human Platelet Receptor Binding
# Compounds of the invention were evaluated for their ability to inhibit specific binding of [^3 H]PAF to human platelet membrane preparation. Human packed platelets were obtained from Lifesource, Inc. (Glenview, Ill.) and washed 3 times with 10 mM Trizma pH 7.0, 2 mM EDTA (dipotassium salt), 150 mM KCl and then once with 10 mM Trizma 7.4, 20 mM CaCl2. The platelets were broken by freezing in a dry ice-ethanol bath, followed by thawing in 24° C. water baths. The preparation was centrifuged (40,000 x g, 20 minutes, […]) and the pellet suspended in 10 mM Trizma 7.4, 20 mM CaCl2, 5 mg/ml human albumin. Protein concentration in the platelet membrane preparation was determined by the Lowry method [O. H. Lowry et al., J. Biol. Chem., 193, 265-275 (1951)]. Aliquots of the membrane preparation were stored at -70° C. Each preparation was characterized for PAF receptor number and dissociation constant (Kd). In binding assays 5 μl of test compound, solubilized in DMSO, was added to polypropylene tubes along with 0.75 nM [^3 H]PAF and 200 mcl [[…]] of membranes and 95 μl 10 mM Trizma 7.4, 20 mM CaCl2, 5 mg/ml human albumin. Tubes were incubated for 30 minutes at 24° C. The incubation was terminated by adding 4 ml of ice-cold 10 mM Trizma pH 7.4, 20 mM CaCl2 and 20 mg/ml BSA prior to vacuum filtration using Whatman GF/C filters. Filters were prepared and counted in a scintillation counter. All DPM values (disintergrations per minute) were-corrected for background and isotope decay. Triplicate determinations for single doses were averaged. […] The IC50 values for the compounds of the invention were determined by the Allfit program using percent displacement data. (Allfit is a `basic` computer program for simultaneous curve fitting of a family of signoidal dose-response curves using the four parameter logistic equation.) Results are shown in Table I. In Table 1 "N.D." means not determined; "c-pent" means cyclopentyl; "c-hex" means cyclohexyl; "i-Pr" means isopropyl; "Me" means methyl; and "OMe" means methoxy.
# T1 sequence (P25105 whole entry): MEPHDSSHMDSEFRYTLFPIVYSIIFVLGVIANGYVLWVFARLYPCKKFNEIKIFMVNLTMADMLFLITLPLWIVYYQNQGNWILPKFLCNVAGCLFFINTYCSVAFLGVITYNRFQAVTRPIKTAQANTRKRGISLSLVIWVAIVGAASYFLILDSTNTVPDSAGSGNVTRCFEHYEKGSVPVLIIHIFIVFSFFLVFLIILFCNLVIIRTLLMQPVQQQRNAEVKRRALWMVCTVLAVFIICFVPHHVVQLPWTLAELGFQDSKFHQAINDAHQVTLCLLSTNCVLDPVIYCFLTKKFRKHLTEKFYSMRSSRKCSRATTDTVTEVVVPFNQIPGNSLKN
row,inhibition at 10 µM [%],SMILES
1,44,"COc1cc(Cn2cnc3ncncc32)ccc1C(=O)N(C(C)C)C1CCCCC1 [Example 2B, N-cyclohexyl-2-methoxy-N-(1-methylethyl)-4-(7H-purin-7-ylmethyl)benzamide]"
2,40,"COc1cc(Cn2cnc3ncnc-3c2)ccc1C(=O)N(C(C)C)C1CCCCC1 [Example 7, N-cyclohexyl-2-methoxy-N-(1-methylethyl)-4-(1H-purin-1-ylmethyl)benzamide]"
3,19,"CC(C)N(C(=O)c1ccc(Cn2cnc3ncnc-3c2)cc1)C1CCCCC1 [Example 8, N-cyclohexyl-N-(1-methylethyl)-4-(1H-purin-1-ylmethyl)benzamide]"
